Test results reported in PubChem BioAssay (NCI).
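Tested at 5 concentrations; 48 h exposure; 96-well plates; endpoints linearly interpolated, else capped at highest concentration. At the TGI there is no net growth.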

Tests used:
Assay in all cases: NCI-60 cell line screen, 48 h
SK-OV-3 ovarian = system: SK-OV-3 ovarian
DU-145 prostate = system: DU-145 prostate
NCI-H23 lung = system: NCI-H23 lung
OVCAR-5 ovarian = system: OVCAR-5 ovarian
SK-MEL-2 melanoma = system: SK-MEL-2 melanoma
RXF 393 renal = system: RXF 393 renal
HCC-2998 colon = system: HCC-2998 colon
SN12C renal = system: SN12C renal
PC-3 prostate = system: PC-3 prostate
SF-295 CNS = system: SF-295 CNS
TK-10 renal = system: TK-10 renal
MALME-3M melanoma = system: MALME-3M melanoma
SK-MEL-5 melanoma = system: SK-MEL-5 melanoma
A549 NSCLC = system: A549 NSCLC
786-0 renal = system: 786-0 renal
BT-549 breast = system: BT-549 breast
HOP-62 NSCLC = system: HOP-62 NSCLC
HT29 colon = system: HT29 colon
HCT-116 colon = system: HCT-116 colon
COLO 205 colon = system: COLO 205 colon
IGROV1 ovarian = system: IGROV1 ovarian
MCF7 breast = system: MCF7 breast
CAKI-1 renal = system: CAKI-1 renal
HOP-92 NSCLC = system: HOP-92 NSCLC
M14 melanoma = system: M14 melanoma
OVCAR-8 ovarian = system: OVCAR-8 ovarian
EKVX NSCLC = system: EKVX NSCLC
MDA-N = system: MDA-N
MDA-MB-435 = system: MDA-MB-435
OVCAR-3 ovarian = system: OVCAR-3 ovarian
HCT-15 colon = system: HCT-15 colon
NCI-H460 lung = system: NCI-H460 lung
UACC-257 melanoma = system: UACC-257 melanoma
SW-620 colon = system: SW-620 colon
T-47D breast = system: T-47D breast
ACHN renal = system: ACHN renal
HS 578T breast = system: HS 578T breast
LOX IMVI melanoma = system: LOX IMVI melanoma
RPMI-8226 leukemia = system: RPMI-8226 leukemia
A498 renal = system: A498 renal
HL-60(TB) leukemia = system: HL-60(TB) leukemia
MOLT-4 leukemia = system: MOLT-4 leukemia
K-562 leukemia = system: K-562 leukemia
NCI-H522 lung = system: NCI-H522 lung
UACC-62 melanoma = system: UACC-62 melanoma
MDA-MB-231 breast = system: MDA-MB-231 breast
NCI-H226 lung = system: NCI-H226 lung
SF-268 CNS = system: SF-268 CNS
NCI/ADR-RES ovarian = system: NCI/ADR-RES ovarian
U251 CNS = system: U251 CNS
SR leukemia = system: SR leukemia
UO-31 renal = system: UO-31 renal
CCRF-CEM leukemia = system: CCRF-CEM leukemia
SK-MEL-28 melanoma = system: SK-MEL-28 melanoma
SNB-19 CNS = system: SNB-19 CNS
OVCAR-4 ovarian = system: OVCAR-4 ovarian
KM12 colon = system: KM12 colon
SNB-75 CNS = system: SNB-75 CNS
SF-539 CNS = system: SF-539 CNS

CC(C)CSCC1OC(n2cnc3c(N)nccc32)C(O)C1O (stereo not drawn)
TGI (SK-OV-3 ovarian): > 100 µM | TGI (DU-145 prostate): > 100 µM | TGI (NCI-H23 lung): > 100 µM | TGI (OVCAR-5 ovarian): > 100 µM | TGI (SK-MEL-2 melanoma): > 100 µM | TGI (RXF 393 renal): > 100 µM | TGI (HCC-2998 colon): > 100 µM | TGI (SN12C renal): > 100 µM | TGI (PC-3 prostate): > 100 µM | TGI (SF-295 CNS): > 100 µM | TGI (TK-10 renal): > 100 µM | TGI (MALME-3M melanoma): > 100 µM | TGI (SK-MEL-5 melanoma): > 100 µM | TGI (A549 NSCLC): > 100 µM | TGI (786-0 renal): > 100 µM | TGI (BT-549 breast): > 100 µM | TGI (HOP-62 NSCLC): > 100 µM | TGI (HT29 colon): > 100 µM | TGI (HCT-116 colon): > 100 µM | TGI (COLO 205 colon): > 100 µM | TGI (IGROV1 ovarian): > 100 µM | TGI (MCF7 breast): > 100 µM | TGI (CAKI-1 renal): > 100 µM | TGI (HOP-92 NSCLC): > 100 µM | TGI (M14 melanoma): > 100 µM | TGI (OVCAR-8 ovarian): > 100 µM | TGI (EKVX NSCLC): > 100 µM | TGI (MDA-N): > 100 µM | TGI (MDA-MB-435): > 100 µM | TGI (OVCAR-3 ovarian): > 100 µM | TGI (HCT-15 colon): > 100 µM | TGI (NCI-H460 lung): > 100 µM | TGI (UACC-257 melanoma): > 100 µM | TGI (SW-620 colon): > 100 µM | TGI (T-47D breast): > 100 µM | TGI (ACHN renal): > 100 µM | TGI (HS 578T breast): > 100 µM | TGI (LOX IMVI melanoma): > 100 µM | TGI (RPMI-8226 leukemia): > 100 µM | TGI (A498 renal): > 100 µM | TGI (HL-60(TB) leukemia): > 100 µM | TGI (MOLT-4 leukemia): > 100 µM | TGI (K-562 leukemia): > 100 µM | TGI (NCI-H522 lung): > 100 µM | TGI (UACC-62 melanoma): > 100 µM | TGI (MDA-MB-231 breast): > 100 µM | TGI (NCI-H226 lung): > 100 µM | TGI (SF-268 CNS): > 100 µM | TGI (NCI/ADR-RES ovarian): > 100 µM | TGI (U251 CNS): > 100 µM | TGI (SR leukemia): > 100 µM | TGI (UO-31 renal): > 100 µM | TGI (CCRF-CEM leukemia): > 100 µM | TGI (SK-MEL-28 melanoma): > 100 µM | TGI (SNB-19 CNS): > 100 µM | TGI (OVCAR-4 ovarian): > 100 µM | TGI (KM12 colon): > 100 µM | TGI (SNB-75 CNS): > 100 µM | TGI (SF-539 CNS): > 100 µM

O=S(/C=C/C=C/S(=O)(=O)c1ccccc1)c1ccccc1 (stereo not drawn)
TGI (SK-OV-3 ovarian): > 10 µM | TGI (DU-145 prostate): > 7 µM | TGI (NCI-H23 lung): 4.39 µM | TGI (OVCAR-5 ovarian): > 10 µM | TGI (SK-MEL-2 melanoma): 4.2 µM | TGI (RXF 393 renal): 3.31 µM | TGI (HCC-2998 colon): > 10 µM | TGI (SN12C renal): 3.94 µM | TGI (PC-3 prostate): > 10 µM | TGI (SF-295 CNS): > 10 µM | TGI (TK-10 renal): 6.08 µM | TGI (MALME-3M melanoma): 4.22 µM | TGI (SK-MEL-5 melanoma): 3.91 µM | TGI (A549 NSCLC): > 10 µM | TGI (786-0 renal): 1.61 µM | TGI (BT-549 breast): > 10 µM | TGI (HOP-62 NSCLC): > 10 µM | TGI (HT29 colon): > 10 µM | TGI (HCT-116 colon): 2.84 µM | TGI (COLO 205 colon): 3.48 µM | TGI (IGROV1 ovarian): > 10 µM | TGI (MCF7 breast): 3.17 µM | TGI (CAKI-1 renal): 3.43 µM | TGI (HOP-92 NSCLC): 4.87 µM | TGI (M14 melanoma): 1.56 µM | TGI (OVCAR-8 ovarian): 3.7 µM | TGI (EKVX NSCLC): > 10 µM | TGI (MDA-N): > 5.51 µM | TGI (MDA-MB-435): 5.96 µM | TGI (OVCAR-3 ovarian): 3.44 µM | TGI (HCT-15 colon): 3.97 µM | TGI (NCI-H460 lung): > 10 µM | TGI (UACC-257 melanoma): 3.77 µM | TGI (SW-620 colon): 2.67 µM | TGI (T-47D breast): > 4.97 µM | TGI (ACHN renal): > 9.31 µM | TGI (HS 578T breast): > 10 µM | TGI (LOX IMVI melanoma): > 3.89 µM | TGI (RPMI-8226 leukemia): 3.06 µM | TGI (A498 renal): > 10 µM | TGI (HL-60(TB) leukemia): 0.909 µM | TGI (MOLT-4 leukemia): 4.11 µM | TGI (K-562 leukemia): 2.83 µM | TGI (NCI-H522 lung): 3.17 µM | TGI (UACC-62 melanoma): > 7.77 µM | TGI (MDA-MB-231 breast): 8.8 µM | TGI (NCI-H226 lung): > 10 µM | TGI (SF-268 CNS): > 9.08 µM | TGI (NCI/ADR-RES ovarian): 5.02 µM | TGI (U251 CNS): > 10 µM | TGI (SR leukemia): 3.07 µM | TGI (UO-31 renal): 5.64 µM | TGI (CCRF-CEM leukemia): 2.27 µM | TGI (SK-MEL-28 melanoma): 4.35 µM | TGI (SNB-19 CNS): > 10 µM | TGI (OVCAR-4 ovarian): 4.33 µM | TGI (KM12 colon): > 4.88 µM | TGI (SNB-75 CNS): > 10 µM | TGI (SF-539 CNS): > 10 µM
